From ChEMBL document CHEMBL1201862, “PubChem BioAssay data set” (2004)
The source made the active and inactive calls.

What was measured:
[1] = molecular target: T1, Calpain-2 catalytic subunit (Sus scrofa, UniProt P43367); test: pig calpain II inhibitor potency, dose response, biochemical, fluorogenic peptide substrate (AID 1420); assay type: functional
T1 sequence (P43367 whole entry): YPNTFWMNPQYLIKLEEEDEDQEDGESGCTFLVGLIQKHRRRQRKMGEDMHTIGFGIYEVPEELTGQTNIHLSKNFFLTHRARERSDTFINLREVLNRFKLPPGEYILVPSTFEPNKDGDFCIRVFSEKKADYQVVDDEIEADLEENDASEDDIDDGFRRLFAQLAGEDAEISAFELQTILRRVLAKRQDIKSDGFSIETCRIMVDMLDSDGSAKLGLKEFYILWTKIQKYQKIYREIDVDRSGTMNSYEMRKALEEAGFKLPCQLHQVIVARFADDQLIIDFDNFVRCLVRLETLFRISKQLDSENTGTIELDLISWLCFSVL

[2] = molecular target: T2, Mannose-6-phosphate isomerase (Homo sapiens, UniProt P34949); test: human PMI inhibitors, high substrate, primary screen, biochemical, fluorescence intensity, high mannose 6-phosphate (AID 1220)
T2 sequence (P34949 whole entry): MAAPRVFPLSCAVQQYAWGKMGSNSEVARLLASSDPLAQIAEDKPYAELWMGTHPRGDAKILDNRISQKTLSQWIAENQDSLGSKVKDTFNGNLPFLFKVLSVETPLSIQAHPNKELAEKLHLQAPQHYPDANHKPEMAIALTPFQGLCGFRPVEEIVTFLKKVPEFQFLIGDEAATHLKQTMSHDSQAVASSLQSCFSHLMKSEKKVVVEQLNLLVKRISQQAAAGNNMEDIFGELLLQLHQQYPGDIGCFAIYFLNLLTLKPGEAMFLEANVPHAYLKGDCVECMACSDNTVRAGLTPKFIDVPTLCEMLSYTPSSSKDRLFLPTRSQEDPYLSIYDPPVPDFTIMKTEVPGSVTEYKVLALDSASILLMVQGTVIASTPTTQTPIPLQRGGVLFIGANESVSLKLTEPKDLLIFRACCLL

[3] = molecular target: FAD-linked sulfhydryl oxidase ALR (Homo sapiens, UniProt P55789); test: inhibitors of human ALR sulfhydryl oxidase, dose response, biochemical, H2O2 detection, luminescence, cherry-pick (AID 493248)
[4] = molecular target: T3, Rac GTPase-activating protein 1 (Homo sapiens, UniProt Q9H0H5); test: MgcRacGAP GTPase-activating activity inhibitors, confirmation, biochemical, ADP Hunter fluorescence, primary and confirmatory (AID 624330); assay type: functional
T3 sequence (Q9H0H5 whole entry): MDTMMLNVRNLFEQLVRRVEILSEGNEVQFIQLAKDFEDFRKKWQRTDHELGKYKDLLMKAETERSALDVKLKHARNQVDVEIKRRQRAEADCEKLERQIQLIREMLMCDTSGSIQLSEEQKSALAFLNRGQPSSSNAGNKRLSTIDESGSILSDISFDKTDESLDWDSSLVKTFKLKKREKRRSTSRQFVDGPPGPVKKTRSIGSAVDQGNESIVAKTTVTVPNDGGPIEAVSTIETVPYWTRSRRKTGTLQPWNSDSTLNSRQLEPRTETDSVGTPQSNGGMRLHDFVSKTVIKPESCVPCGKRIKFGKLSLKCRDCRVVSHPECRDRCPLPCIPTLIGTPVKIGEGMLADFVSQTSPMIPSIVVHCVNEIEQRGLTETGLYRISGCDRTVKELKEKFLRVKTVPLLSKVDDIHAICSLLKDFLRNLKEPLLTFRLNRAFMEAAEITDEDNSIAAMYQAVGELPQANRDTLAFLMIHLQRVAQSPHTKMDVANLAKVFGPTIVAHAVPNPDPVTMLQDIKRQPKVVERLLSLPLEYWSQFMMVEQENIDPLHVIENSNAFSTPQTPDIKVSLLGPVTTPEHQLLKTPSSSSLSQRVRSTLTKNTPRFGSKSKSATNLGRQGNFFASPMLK

[5] = NIH-3T3 fibroblast cytotoxicity, dose response, cytotoxicity control, cell-based, fluorescence, Alamar Blue, secondary assay (AID 2327); assay type: functional;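 also: NIH-3T3 mouse fibroblasts cultured with fluconazole at 8 µg/mL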
[6] = C. albicans growth with fluconazole, confirmation, fluorescence, retest (AID 2467); assay type: functional, cell-based
[7] = test system: Streptococcus sp. 'group A'; test: growth inhibition of control SK(-) GAS strain, dose response, counter-screen for streptokinase expression inhibitor project, luminescence, kanamycin, BacTiterGlo, confirmation (AID 1900); assay type: functional, organism-based
[8] = A Cell Based Secondary Assay To Explore Cytotoxicity of Compounds that Sensitize Mycobacterium Tuberculosis to Beta-Lactam Antibiotics.; assay type: functional
Streptokinase A = molecular target: T4, Streptokinase A (Streptococcus pyogenes serotype M1, UniProt P10520); test: S. pyogenes streptokinase expression inhibitors, potency, dose response, plasminogen activation absorbance, OD405 (AID 1914); assay type: functional, Streptococcus pyogenes M1 GAS;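 also: secreted streptokinase activity via plasminogen activation per viability signal from cell pellet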
T4 sequence (P10520 whole entry): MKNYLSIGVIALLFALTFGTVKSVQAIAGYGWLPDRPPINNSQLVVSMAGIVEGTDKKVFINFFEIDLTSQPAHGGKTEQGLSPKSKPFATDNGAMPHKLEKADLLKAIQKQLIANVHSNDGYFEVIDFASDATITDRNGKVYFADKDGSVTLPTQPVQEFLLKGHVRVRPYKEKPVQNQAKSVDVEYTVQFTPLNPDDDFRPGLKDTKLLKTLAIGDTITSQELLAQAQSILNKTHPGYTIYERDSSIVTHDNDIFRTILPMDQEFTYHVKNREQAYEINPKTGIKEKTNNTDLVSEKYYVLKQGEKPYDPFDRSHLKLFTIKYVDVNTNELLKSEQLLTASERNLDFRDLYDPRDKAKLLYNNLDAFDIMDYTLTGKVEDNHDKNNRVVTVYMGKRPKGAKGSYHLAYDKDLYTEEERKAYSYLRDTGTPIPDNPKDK

[9] = molecular target: Luciferin 4-monooxygenase (Photinus pyralis, UniProt P08659); test: firefly luciferase enzyme inhibitors, dose response, biochemical, luminescence (AID 1891)
[10] = Luminescence Cell-Based Dose Confirmation HTS to Identify Inhibitors of Platelet Dense Granule Release. [Related pubchem assays: 1663 (Primary HTS), 1678 (Summary of Project)]; assay type: functional
Streptococcus = test: Group A Streptococcus viability loss, dose response, counter-screen for streptokinase expression inhibitor project, luminescence, BacTiterGlo (AID 1915); assay type: functional, organism-based;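 also: potency for reduction of bacterial viability or growth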
[11] = molecular target: T5, Polyadenylate-binding protein 1 (Homo sapiens, UniProt P11940); test: PABP1 MLLE–PAM2 interaction inhibitors, dose response, miRNA deadenylation inhibitor project, biochemical, fluorescence polarization, Cy5-PAM2 peptide, secondary (AID 602260); assay type: functional; details: read-out: IC50_Mean
[12] = molecular target: T5, Polyadenylate-binding protein 1; test: PABP1 MLLE–PAM2 binding inhibitor potency, dose response, biochemical, fluorescence polarization, FITC-PAM2 peptide (AID 602259); assay type: functional; details: read-out: IC50_Mean
Paired box protein Pax-8 = Paired box protein Pax-8 (Homo sapiens, UniProt Q06710); test: inhibitors of PAX8-driven TPO luciferase reporter, dose response, RMG-I cells, cherry-pick (AID 687027); assay type: functional, cell-based;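 also: luciferase reporter driven by Pax8 target thyroperoxidase promoter measured by SteadyGlo luminescence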
[13] = NIH:OVCAR-3 ovarian cancer cell cytotoxicity, dose response, PAX8 inhibitor project, plate reader, dry powder samples (AID 743044); assay type: functional, cell-based
[14] = P. falciparum Dd2 growth inhibitors, dose response, SYBR Green, cherry-picked samples (AID 1159567); assay type: functional, cell-based

Sequence of FAD-linked sulfhydryl oxidase ALR (P55789 whole entry): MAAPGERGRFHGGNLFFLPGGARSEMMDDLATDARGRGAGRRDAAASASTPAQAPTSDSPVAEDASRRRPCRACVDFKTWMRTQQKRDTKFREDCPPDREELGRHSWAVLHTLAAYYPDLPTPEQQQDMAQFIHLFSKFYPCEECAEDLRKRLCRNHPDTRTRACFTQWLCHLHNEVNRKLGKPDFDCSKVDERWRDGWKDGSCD
T5 sequence (P11940 whole entry): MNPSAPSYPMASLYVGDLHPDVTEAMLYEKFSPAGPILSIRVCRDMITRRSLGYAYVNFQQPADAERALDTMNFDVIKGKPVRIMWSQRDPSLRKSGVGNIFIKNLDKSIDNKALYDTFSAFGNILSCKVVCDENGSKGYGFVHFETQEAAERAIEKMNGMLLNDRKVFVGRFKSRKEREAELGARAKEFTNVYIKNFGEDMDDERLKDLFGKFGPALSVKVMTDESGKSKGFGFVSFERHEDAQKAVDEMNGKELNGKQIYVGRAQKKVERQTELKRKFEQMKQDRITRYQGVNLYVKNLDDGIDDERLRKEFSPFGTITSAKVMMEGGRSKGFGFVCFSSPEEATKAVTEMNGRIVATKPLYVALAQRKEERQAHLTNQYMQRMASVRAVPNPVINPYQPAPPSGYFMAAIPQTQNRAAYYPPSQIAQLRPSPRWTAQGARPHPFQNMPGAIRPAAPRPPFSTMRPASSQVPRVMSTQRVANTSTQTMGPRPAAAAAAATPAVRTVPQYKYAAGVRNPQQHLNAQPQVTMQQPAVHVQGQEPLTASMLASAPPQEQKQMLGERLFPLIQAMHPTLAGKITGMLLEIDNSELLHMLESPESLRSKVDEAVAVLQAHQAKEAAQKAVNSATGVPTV
Sequence of Paired box protein Pax-8 (Q06710 whole entry): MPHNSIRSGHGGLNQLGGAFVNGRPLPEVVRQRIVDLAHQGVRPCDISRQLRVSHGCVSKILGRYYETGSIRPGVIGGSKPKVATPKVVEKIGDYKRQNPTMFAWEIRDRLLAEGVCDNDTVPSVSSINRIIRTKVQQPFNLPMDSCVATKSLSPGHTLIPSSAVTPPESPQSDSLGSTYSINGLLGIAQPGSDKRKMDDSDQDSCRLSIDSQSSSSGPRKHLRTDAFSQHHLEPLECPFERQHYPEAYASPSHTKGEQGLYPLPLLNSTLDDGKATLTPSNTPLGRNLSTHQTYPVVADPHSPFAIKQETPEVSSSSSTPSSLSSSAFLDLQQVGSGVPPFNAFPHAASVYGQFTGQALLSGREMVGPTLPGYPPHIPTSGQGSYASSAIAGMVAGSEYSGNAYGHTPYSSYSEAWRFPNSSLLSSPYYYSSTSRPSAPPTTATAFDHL
Sequence of Luciferin 4-monooxygenase (P08659 whole entry): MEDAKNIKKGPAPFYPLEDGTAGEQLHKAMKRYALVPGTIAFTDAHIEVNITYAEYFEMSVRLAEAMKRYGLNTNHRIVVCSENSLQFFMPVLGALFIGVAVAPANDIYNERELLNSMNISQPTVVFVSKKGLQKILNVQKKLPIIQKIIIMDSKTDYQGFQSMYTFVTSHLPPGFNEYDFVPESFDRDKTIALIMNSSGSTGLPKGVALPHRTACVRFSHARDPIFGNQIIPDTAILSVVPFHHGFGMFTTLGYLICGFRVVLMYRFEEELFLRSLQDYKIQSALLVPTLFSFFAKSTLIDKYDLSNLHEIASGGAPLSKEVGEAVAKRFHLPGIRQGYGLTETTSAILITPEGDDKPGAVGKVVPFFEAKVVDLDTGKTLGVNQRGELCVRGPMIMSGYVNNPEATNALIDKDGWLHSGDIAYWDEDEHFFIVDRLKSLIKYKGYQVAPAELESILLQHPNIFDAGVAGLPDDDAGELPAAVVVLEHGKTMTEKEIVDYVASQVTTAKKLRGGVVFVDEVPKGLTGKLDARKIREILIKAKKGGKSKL

CCOc1ccc(NC(=O)CCC(=O)n2nc(C)cc2C)cc1
IC50 [1]: < 0.4 µM (not active)

Cc1ccc(NCc2nc3ccccc3n2CCOc2ccccc2)cc1
IC50 [2]: > 50 µM (not active)

COc1ccc(-c2nc(NC(=O)CCNC(=O)c3ccco3)sc2C)cc1
IC50 [1]: 3.03 µM (not active)

Cc1ccc(N(CC(=O)Nc2cccc(C)c2)S(=O)(=O)c2cccc3nonc23)cc1
IC50 [1]: 1.1 µM (not active)

CN(C(S)=Nc1ccc(SC(F)F)cc1)c1ccc(O)cc1
IC50 [2]: > 50 µM (not active)

Cc1ccc2c(c1)CCCN2C(=O)c1ccc2c(c1)OCO2
IC50 [1]: > 50 µM (not active)

CN(c1ccc(O)cc1)c1nc(-c2cccnc2)cs1
AC50 [3]: 3.84 µM (active)
IC50 [4]: 17.5 µM (active)

O=C(O)CCC(=O)N1CCN(c2ccc(C(=O)c3ccc(F)cc3)cc2)CC1
IC50 [1]: > 50 µM (not active)

[O-][S+](N1CCc2ccccc21)C12CC3CC(CC(C3)C1)C2 (stereo not given)
IC50 [1]: 10.8 µM (not active)

Cc1ccc(NCc2ccc(O)c3ncccc23)cc1
EC50 [5]: > 160 µM (inconclusive)
EC50 [6]: > 38 µM (not active)
IC50 [2]: > 50 µM (not active)

Cc1cc(NC(=O)/C=C/c2ccccc2Cl)n(-c2nc3ccccc3[nH]2)n1
EC50 [7]: 7.03 µM (active)
CC50 [8]: 14.5 µM (active)
EC50 (Streptokinase A): > 150 µM (not active)
EC50 [9]: 3.94 µM (active)
EC50 [10]: 13.2 µM (active)
EC50 (Streptococcus): > 150 µM (not active)

Cc1ccc(C2SCC(=O)N2c2ccccc2)cc1 (stereo not given)
AC50 [3]: < 0.005 µM (active)
IC50 [11]: > 66 µM (inactive)
IC50 [12]: > 66 µM (inactive)

CSCc1ccc(C(=O)N2CCCC(Nc3ccc(F)cc3)C2)o1 (stereo not given)
AC50 [3]: 2.76 µM (active)

O=C(CCc1c[nH]c2ccccc12)NCCc1ccc(O)cc1
AC50 [3]: 7.62 µM (active)
IC50 [4]: 112 µM (active)

O=C(Cc1ccccc1)N1CC[C@H]2[C@H](CO)Nc3ccc(C4=CCCCC4)cc3[C@H]21
AC50 (Paired box protein Pax-8): 6.67 µM (active)
AC50 [13]: 51.3 µM (active)

C/C(=N\OCC(=O)Nc1ccc(Br)cc1)c1cccs1
IC50 [1]: > 50 µM (not active)

CC(=N\Nc1ccc(Cl)cc1)/C(=N/O)C(=O)Nc1ccccc1
AC50 [3]: 0.104 µM (active)

CCN(CC)c1ccc(/C=N/NC(=O)CC(C)C)cc1
AC50 [3]: 2.97 µM (active)

C/C(=N\Nc1ccc([N+](=O)[O-])cc1)c1ccc(O)cc1
EC50 [5]: > 150 µM (inactive)
EC50 [6]: > 38 µM (not active)
AC50 [3]: 0.136 µM (active)

COc1cccc(-c2ccc([C@@H]3[C@H](CO)N4CCCCN(C(=O)c5ccc(F)cc5)C[C@@H]34)cc2)c1
AC50 [14]: 5.39 µM (active)

C[C@H](CO)N1C[C@H](C)[C@H](CN(C)Cc2ccc(Oc3ccccc3)cc2)Oc2ccc(NS(=O)(=O)c3ccc(Cl)cc3)cc2CC1=O
AC50 [14]: 7.51 µM (active)
